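Assay format: 96-well plates, 48-hour exposure. GI50 = concentration required for 50% inhibition of growth.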 Activity calls are given as the source filed them. Cut-off read from the data, not from the text of the source: active = GI50 up to about 1.1 µM and inactive = higher.
Experiments:
Assay in all cases: growth of human tumour cells (NCI), 48 h
SK-MEL-5 = system: SK-MEL-5
SF-295 = system: SF-295
K562 = system: K562
MDA-MB-435 = system: MDA-MB-435
SK-MEL-2 = system: SK-MEL-2
EKVX = system: EKVX
NCI-H23 = system: NCI-H23
ACHN = system: ACHN
DU-145 = system: DU-145
HCT-116 = system: HCT-116
HOP-62 = system: HOP-62
UACC-62 = system: UACC-62
NCI-H460 = system: NCI-H460
HOP-92 = system: HOP-92
A549 = system: A549
NCI-H226 = system: NCI-H226
T47D = system: T47D
TK-10 = system: TK-10
PC-3 = system: PC-3
SW-620 = system: SW-620
BT-549 = system: BT-549
UACC-257 = system: UACC-257
HT-29 = system: HT-29
SNB-75 = system: SNB-75
HL-60 = system: HL-60
M14 = system: M14
LOX IMVI = system: LOX IMVI
SF-539 = system: SF-539
KM12 = system: KM12
SK-OV-3 = system: SK-OV-3
CAKI-1 = system: CAKI-1
NCI/ADR-RES = system: NCI/ADR-RES
OVCAR-8 = system: OVCAR-8
NCI-H522 = system: NCI-H522
SNB-19 = system: SNB-19
IGROV-1 = system: IGROV-1
RPMI-8226 = system: RPMI-8226
OVCAR-3 = system: OVCAR-3
MOLT-4 = system: MOLT-4
U-251 = system: U-251
OVCAR-5 = system: OVCAR-5
RXF 393 = system: RXF 393
HCT-15 = system: HCT-15
786-0 = system: 786-0
HCC 2998 = system: HCC 2998
SR = system: SR
SK-MEL-28 = system: SK-MEL-28
OVCAR-4 = system: OVCAR-4
UO-31 = system: UO-31
Malme-3M = system: Malme-3M
SN12C = system: SN12C
Hs-578T = system: Hs-578T
COLO 205 = system: COLO 205
MDA-N = system: MDA-N
MCF7 = system: MCF7
A498 = system: A498

Measured: GI50

c1ccc(P(CCP(c2ccccn2)c2ccccn2)c2ccccc2)cc1
> 100 µM: HCT-15
active: SF-295 0.497 µM | K562 0.0783 µM | EKVX 0.689 µM | NCI-H23 < 0.01 µM | HCT-116 0.0192 µM | HOP-62 0.0268 µM | NCI-H460 0.196 µM | A549 0.0736 µM | T47D 0.0435 µM | PC-3 0.0281 µM | UACC-257 < 0.0185 µM | HT-29 0.0247 µM | SNB-75 0.863 µM | HL-60 0.0398 µM | LOX IMVI 0.038 µM | SF-539 0.577 µM | KM12 0.286 µM | OVCAR-8 0.108 µM | NCI-H522 0.0314 µM | SNB-19 0.498 µM | IGROV-1 < 0.01 µM | RPMI-8226 0.0409 µM | OVCAR-3 < 0.0172 µM | U-251 0.0578 µM | COLO 205 0.341 µM | MCF7 0.0261 µM
inactive: SK-MEL-5 21.5 µM | MDA-MB-435 12.1 µM | SK-MEL-2 7.67 µM | ACHN 23.3 µM | DU-145 1.19 µM | UACC-62 63.7 µM | HOP-92 3.01 µM | NCI-H226 45.3 µM | TK-10 26.5 µM | SW-620 3.51 µM | BT-549 32.9 µM | M14 19.6 µM | SK-OV-3 48.9 µM | CAKI-1 > 90.8 µM | NCI/ADR-RES > 100 µM | MOLT-4 80.2 µM | OVCAR-5 > 75.9 µM | RXF 393 19.8 µM | 786-0 11.9 µM | HCC 2998 3.37 µM | SR 19.4 µM | SK-MEL-28 64 µM | OVCAR-4 50.7 µM | UO-31 33.3 µM | Malme-3M 25.2 µM | SN12C 14 µM | Hs-578T 7.67 µM | MDA-N 4.57 µM | A498 12.8 µM
